From PubChem BioAssay AID330 (DTP/NCI, 2004)
Values joined by “and” are separate entries in the source; they are usually repeats but may differ in a detail not shown here. Equal values may be shown once. Inconclusive results and toxic doses are left out. How the source made its calls: active means survival T/C of 150% or more; inactive means T/C below 125% in these data.

Tested on: P388 leukemia ip, CD2F1 mice, survival T/C
Experiment: NCI In Vivo Anticancer Drug Screen. Data for tumor model P388 Leukemia (intraperitoneal) in CD2F1 (CDF1) mice
Conditions: endpoint: median survival time, higher = longer survival
How it was run: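 Mice carrying the transplanted tumor received test compound or vehicle. Survival was recorded in each group, and the value is the treated-group measurement divided by that of the vehicle-treated control group.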

[1] = dose: 50.0 mg/kg/injection, schedule: Q01DX009 (ip), vehicle: saline
[2] = dose: 100.0 mg/kg/injection, schedule: Q01DX009 (ip), vehicle: saline
[3] = dose: 200.0 mg/kg/injection, schedule: Q01DX009 (ip), vehicle: saline
[4] = dose: 60.0 mg/kg/injection, schedule: Q01DX005 (ip), vehicle: saline with Tween-80
[5] = dose: 120.0 mg/kg/injection, schedule: Q01DX005 (ip), vehicle: saline with Tween-80
[6] = dose: 240.0 mg/kg/injection, schedule: Q01DX005 (ip), vehicle: saline with Tween-80
[7] = dose: 50.0 mg/kg/injection, schedule: Q01DX009 (ip), vehicle: saline with Tween-80
[8] = dose: 100.0 mg/kg/injection, schedule: Q01DX009 (ip), vehicle: saline with Tween-80
[9] = dose: 200.0 mg/kg/injection, schedule: Q01DX009 (ip), vehicle: saline with Tween-80

Measured: T/C

FC(F)(F)c1cc(NC(=S)SC2CCCCC2)ccc1Cl
inactive: dose: 25.0 mg/kg/injection, schedule: Q01DX009 (ip), vehicle: saline 103 % of control | [1] 100 % of control and 110 % of control | [2] 107 % of control and 118 % of control | [3] 121 % of control

COC(=O)c1[nH]c(=O)c(C#N)c(C(=O)OC)c1C(=O)c1ccc(Cl)c(Cl)c1
inactive: dose: 60.0 mg/kg/injection, schedule: Q01DX005 (ip), vehicle: Klucel (hydroxypropylcellulose) (HPC) 100 % of control | dose: 120.0 mg/kg/injection, schedule: Q01DX005 (ip), vehicle: Klucel (hydroxypropylcellulose) (HPC) 107 % of control | dose: 240.0 mg/kg/injection, schedule: Q01DX005 (ip), vehicle: Klucel (hydroxypropylcellulose) (HPC) 100 % of control

S=C1NCN(CC2CC2)CN1
inactive: [4] 97 % of control | [5] 96 % of control | [6] 94 % of control

Oc1ccc(CCNCc2ccc3c(c2)OCO3)cc1O
inactive: dose: 100.0 mg/kg/injection, schedule: Q04DX002 (ip), vehicle: Klucel (hydroxypropylcellulose) (HPC) 99 % of control | dose: 200.0 mg/kg/injection, schedule: Q04DX002 (ip), vehicle: Klucel (hydroxypropylcellulose) (HPC) 94 % of control

Cc1nn(C(=O)c2ccncc2)c(C)c1N=Nc1cccc([N+](=O)[O-])c1
inactive: dose: 100.0 mg/kg/injection, schedule: Q04DX003 (ip), vehicle: saline 89 % of control | dose: 200.0 mg/kg/injection, schedule: Q04DX003 (ip), vehicle: saline 93 % of control

C1CCC2CC3NC3CC2C1 (centres undefined)
inactive: [1] 101 % of control | [2] 105 % of control | [3] 101 % of control

COc1cc(C2N3CCCN2CC3)cc(OC)c1OC (centres undefined)
inactive: [2] 101 % of control | [3] 102 % of control

O=C1NC2C(CC(O)C(O)C2O)c2cc3c(c(O)c21)OCO3 (centres undefined)
inactive: dose: 0.19 mg/kg/injection, schedule: Q01DX009 (ip), vehicle: saline + alcohol 103 % of control | dose: 0.38 mg/kg/injection, schedule: Q01DX009 (ip), vehicle: saline + alcohol 111 % of control | dose: 0.75 mg/kg/injection, schedule: Q01DX009 (ip), vehicle: saline + alcohol 116 % of control | dose: 1.44 mg/kg/injection, schedule: Q01DX009 (ip), vehicle: saline + alcohol 107 % of control | dose: 1.5 mg/kg/injection, schedule: Q01DX009 (ip), vehicle: saline + alcohol 117 % of control | dose: 2.88 mg/kg/injection, schedule: Q01DX009 (ip), vehicle: saline + alcohol 115 % of control | dose: 5.75 mg/kg/injection, schedule: Q01DX009 (ip), vehicle: saline + alcohol 115 % of control | dose: 11.5 mg/kg/injection, schedule: Q01DX009 (ip), vehicle: saline + alcohol 115 % of control

O=C(c1ccc(-c2ccccc2)cc1)C1C(c2ccccc2)N1C1CCCCC1 (centres undefined)
inactive: dose: 25.0 mg/kg/injection, schedule: Q01DX009 (ip), vehicle: other 88 % of control | dose: 100.0 mg/kg/injection, schedule: Q01DX009 (ip), vehicle: other 91 % of control

ClC1(Cl)C2CCCCC21 (centres undefined)
inactive: [7] 100 % of control | [8] 90 % of control

CCOC(=O)Nc1ccc(C2SCCN2C(=O)Nc2ccc(Cl)cc2)cc1 (centres undefined)
inactive: [4] 100 % of control | [5] 91 % of control | [6] 91 % of control

CCOC(=O)CC(SP(=S)(OC)OC)C(=O)OCC (centres undefined)
inactive: [7] 103 % of control | [8] 112 % of control | [9] 107 % of control

Cc1cc(N(CCOS(C)(=O)=O)CCOS(C)(=O)=O)ccc1C=Nc1ccc(-c2csc(-c3ccc(Br)cc3)n2)cc1
inactive: [8] 98 % of control and 90 % of control
active: dose: 25.0 mg/kg/injection, schedule: Q01DX009 (ip), vehicle: saline with Tween-80 180 % of control | [7] 209 % of control

C[n+]1c(-c2cccc3ccccc23)c2cc(N)ccc2c2ccccc21
inactive: dose: 0.78 mg/kg/injection, schedule: Q01DX009 (ip), vehicle: water 110 % of control | dose: 1.56 mg/kg/injection, schedule: Q01DX009 (ip), vehicle: saline 103 % of control and 113 % of control | dose: 1.56 mg/kg/injection, schedule: Q01DX009 (ip), vehicle: water 119 % of control | dose: 3.12 mg/kg/injection, schedule: Q01DX009 (ip), vehicle: saline 105 % of control | dose: 6.25 mg/kg/injection, schedule: Q01DX009 (ip), vehicle: saline 112 % of control and 122 % of control | dose: 12.0 mg/kg/injection, schedule: Q01DX009 (ip), vehicle: water 110 % of control | dose: 12.5 mg/kg/injection, schedule: Q01DX009 (ip), vehicle: saline 117 % of control and 121 % of control

COc1cc(NCC(O)CN2C(C)CCCC2C)c2ncccc2c1 (centres undefined)
inactive: dose: 6.0 mg/kg/injection, schedule: Q01DX005 (ip), vehicle: saline 98 % of control | dose: 12.5 mg/kg/injection, schedule: Q01DX005 (ip), vehicle: saline 100 % of control

COc1ccc(S(=O)(=O)c2cnc(N/N=C/c3ccc([N+](=O)[O-])o3)nc2N)cc1
inactive: dose: 100.0 mg/kg/injection, schedule: Q01DX001 (ip), vehicle: saline 93 % of control | dose: 200.0 mg/kg/injection, schedule: Q01DX001 (ip), vehicle: saline 90 % of control | dose: 400.0 mg/kg/injection, schedule: Q01DX001 (ip), vehicle: saline 90 % of control

C1CCCCCc2c(-c3noc4c3CCCCCCCCCC4)noc2CCCC1
inactive: dose: 60.0 mg/kg/injection, schedule: Q01DX005 (ip), vehicle: Klucel + Tween-80 105 % of control | dose: 120.0 mg/kg/injection, schedule: Q01DX005 (ip), vehicle: Klucel + Tween-80 97 % of control | dose: 240.0 mg/kg/injection, schedule: Q01DX005 (ip), vehicle: Klucel + Tween-80 100 % of control

CCCCNC(=O)N1C2C3CCC(C)(OC3(C)C)C21 (centres undefined)
inactive: dose: 50.0 mg/kg/injection, schedule: Q01DX005 (ip), vehicle: saline 101 % of control | dose: 100.0 mg/kg/injection, schedule: Q01DX005 (ip), vehicle: saline 101 % of control | dose: 200.0 mg/kg/injection, schedule: Q01DX005 (ip), vehicle: saline 102 % of control

CC1(C)OC2COC3OC(C)(C)OC3(/C=N\NC(=O)c3cc4ccccc4[nH]3)C2O1 (centres undefined)
inactive: dose: 50.0 mg/kg/injection, schedule: Q01DX005 (ip), vehicle: Klucel (hydroxypropylcellulose) (HPC) 98 % of control | dose: 100.0 mg/kg/injection, schedule: Q01DX005 (ip), vehicle: Klucel (hydroxypropylcellulose) (HPC) 104 % of control | dose: 200.0 mg/kg/injection, schedule: Q01DX005 (ip), vehicle: Klucel (hydroxypropylcellulose) (HPC) 102 % of control

CCCCCCCCCCCCNc1ncnc2[nH]ncc12
inactive: dose: 50.0 mg/kg/injection, schedule: Q01DX005 (ip), vehicle: saline with Tween-80 102 % of control | dose: 100.0 mg/kg/injection, schedule: Q01DX005 (ip), vehicle: saline with Tween-80 98 % of control | dose: 200.0 mg/kg/injection, schedule: Q01DX005 (ip), vehicle: saline with Tween-80 98 % of control

CC[C@@]1(O)C[C@H](OC2CC(N(C)C)C(OC3CC4OC5CC(=O)C(C)OC5OC4C(C)O3)C(C)O2)c2c(cc3c(c2O)C(=O)c2c(O)cccc2C3=O)[C@H]1C(=O)OC (some centres undefined)
inactive: dose: 0.12 mg/kg/injection, schedule: Q01DX009 (ip), vehicle: water 117 % of control | dose: 0.25 mg/kg/injection, schedule: Q01DX009 (ip), vehicle: water 115 % of control | dose: 0.5 mg/kg/injection, schedule: Q01DX009 (ip), vehicle: water 110 % of control | dose: 1.0 mg/kg/injection, schedule: Q01DX009 (ip), vehicle: water 110 % of control
active: dose: 4.0 mg/kg/injection, schedule: Q01DX009 (ip), vehicle: water 162 % of control

COc1ccc(CC[n+]2cccc(C(=O)c3ccccc3)c2)cc1OC
inactive: dose: 12.5 mg/kg/injection, schedule: Q04DX002 (ip), vehicle: saline 97 % of control | dose: 25.0 mg/kg/injection, schedule: Q04DX002 (ip), vehicle: saline 105 % of control | dose: 50.0 mg/kg/injection, schedule: Q04DX002 (ip), vehicle: saline 101 % of control

Cc1noc(C)c1CON
inactive: dose: 75.0 mg/kg/injection, schedule: Q01DX009 (ip), vehicle: saline with Tween-80 91 % of control | dose: 75.0 mg/kg/injection, schedule: Q04DX003 (ip), vehicle: saline 95 % of control | dose: 150.0 mg/kg/injection, schedule: Q04DX003 (ip), vehicle: saline 95 % of control | dose: 300.0 mg/kg/injection, schedule: Q04DX003 (ip), vehicle: saline 91 % of control

O=[n+]1c2c(n([O-])c3cc(Cl)c(Cl)cc31)CCCCC2
inactive: [7] 91 % of control | [8] 99 % of control | [9] 99 % of control
